Columns and labels:
cotton plants = test: Field test on cotton plants at boll opening: defoliation ratio and boll opening after foliar spray; format: in vivo; settings: for Defoliation ratio (%) Rep. 1 / Defoliation ratio (%) Rep. 2 / Defoliation ratio (%) Rep. 3: 20 g/ha, emulsifiable concentrate diluted with water containing 1% (v/v) COC, day 14 after the treatment; for Defoliation ratio (%) Rep. 1: replication 1 about 60% of open bolls; for Defoliation ratio (%) Rep. 2: replication 2 about 60 to 70% of open bolls; for Defoliation ratio (%) Rep. 3: replication 3 80 to 85% of open bolls; for cotton boll opening: field test, sprayed at the time of cotton boll opening
Method: The test results were evaluated according to the following criteria: Defoliation ratio (%)=(the number of dropped leaves/the total number of leaves examined)×100
Cotton seeds were planted and grown in the field. At the time of cotton boll opening, 2.5 parts of each of compounds […], 10 parts of Sorpol 3890 (Toho Chemical Industry Co., Ltd.), and 87.5 parts of SOLVESSO 200 (Exxon Mobile Chemical Company) were well mixed to give an emulsifiable concentrate for each compound, which was then diluted at a prescribed dose with water containing 1% (v/v) crop oil concentrate (COC), and the dilution was uniformly sprayed to the plants. Treatments were carried out with three replications. Replication 1 had about 60% of open bolls; replication 2 had about 60 to 70% of open bolls; replication 3 had 80 to 85% of open boils. The treated fields are each 4 m×6.4 m in area, and the cotton plants on day 14 after the treatment were examined for the defoliation ratio.

Structure (SMILES) | Defoliation ratio (%) Rep. 1 (cotton plants) [%] | Defoliation ratio (%) Rep. 2 (cotton plants) [%] | Defoliation ratio (%) Rep. 3 (cotton plants) [%] | cotton boll opening (cotton plants) | melting point [°C]
COC(=O)COc1ncccc1Oc1cc(-n2c(=O)cc(C(F)(F)F)n(C)c2=O)c(F)cc1Cl [Compound a-6, methyl [3-{2-chloro-4-fluoro-5-[3-methyl-2,6-dioxo-4-(trifluoromethyl)-1,2,3,6-tetrahydropyrimidin-1-yl]phenoxy}-2-pyridyloxy]acetate] | 80 | 75 | 85 | stimulated cotton boll opening | 
Cn1c(C(F)(F)F)cc(=O)n(-c2cc(Oc3ccccc3OCC(=O)OC(C)(C)C)c(Cl)cc2F)c1=O [Compound a-121, t-butyl [2-{2-chloro-4-fluoro-5-[3-methyl-2,6-dioxo-4-(trifluoromethyl)-1,2,3,6-tetrahydropyrimidin-1-yl]phenoxy}phenoxy]acetate] |  |  |  |  | 55.6
COC(=O)COc1ccccc1Oc1cc(-n2c(=O)cc(C(F)(F)F)n(C)c2=O)c(F)cc1Cl [Compound a-5, methyl [2-{2-chloro-4-fluoro-5-[3-methyl-2,6-dioxo-4-(trifluoromethyl)-1,2,3,6-tetrahydropyrimidin-1-yl]phenoxy}phenoxy]acetate] | 85 | 90 | 82 | stimulated cotton boll opening | 
